Publication PMC12113707, “Microwave Assisted Synthesis of Antioxidant Dihydro-Pyrazole Hybrids as Possible Lipoxygenase Inhibitors” (Molecules, 2025)

How the values were obtained:
[1] = Inhibition of AAPH-induced linoleic acid peroxidation; details: 37 °C, 234 nm
Experimental: The ability of the compounds to inhibit AAPH-induced peroxidation of linoleic acid is another assay to investigate the antioxidant properties of the compounds. Azo compounds such as 2,2′-azobis dihydrochloride (2-amidinopropane) (AAPH) are capable of generating free radicals through spontaneous decomposition at 37 °C. The R- radicals react immediately with air-oxygen to produce peroxy radicals. AAPH was therefore used as the radical initiator and sodium linoleate as substrate subjected to peroxidation. Measurements were carried out at 234 nm using a UV/V is spectrophotometer. Dichalcone 1i substituted with two phenyl groups presents the lowest lipophilicity. […] Therefore, hydrophilic substituents offer an increase in activity.
The interaction of free radicals with cell membrane lipids induces free radical chain reactions, a process called lipid peroxidation. 930 μL of a phosphate buffer solution (0.05 M, pH = 7.4), 10 μL of the sodium linolate solution (16 mM in a buffer solution of Tris-HCl pH = 9) and 10 μL of the tested compounds (stock solutions 100 μΜ) were mixed and the oxidative procedure started after the addition of 50 μL AAPH at 37 °C under air conditions. The conjugated diene’s absorbance was measured at 234 nm at a thermostable spectrophotometer (37 °C) according to previous publication.

[2] = Interaction with the stable free radical DPPH (reducing activity); details: 517 nm
Experimental: In general, the compounds present moderate to good antioxidant activity. It seems that the dibenzylacetones present satisfactory antioxidant activity compared to the hybrids at 60 min (1b, 1d and 1f).
The tested compounds (0.1 mM final concentration) dissolved in DMSO were incubated with a solution of DPPH in absolute ethanol in absence of light. The absorbance at 20 and 60 min at 517 nm was recorded at room temperature. NDGA was used as the reference compound.

[3] = molecular target: T1, soybean lipoxygenase (SLOX-1) (Glycine max, UniProt P08170); assay: Inhibition of soybean lipoxygenase in vitro; assay type: biochemical; details: pH 9, sodium linoleate substrate; for inhibition at 100 µM: read-out: LOX% Inhibition, 100 μM (±SD); for IC50: read-out: LOX IC50 (μM) (±SD)
T1 construct: 200 μL of plant-derived lipoxygenase solution (1:9 × 10^−4 w/v, in saline); purchased Sigma Chemical, Co; host or cells: soybean (plant-derived)
T1 sequence (P08170 1-839): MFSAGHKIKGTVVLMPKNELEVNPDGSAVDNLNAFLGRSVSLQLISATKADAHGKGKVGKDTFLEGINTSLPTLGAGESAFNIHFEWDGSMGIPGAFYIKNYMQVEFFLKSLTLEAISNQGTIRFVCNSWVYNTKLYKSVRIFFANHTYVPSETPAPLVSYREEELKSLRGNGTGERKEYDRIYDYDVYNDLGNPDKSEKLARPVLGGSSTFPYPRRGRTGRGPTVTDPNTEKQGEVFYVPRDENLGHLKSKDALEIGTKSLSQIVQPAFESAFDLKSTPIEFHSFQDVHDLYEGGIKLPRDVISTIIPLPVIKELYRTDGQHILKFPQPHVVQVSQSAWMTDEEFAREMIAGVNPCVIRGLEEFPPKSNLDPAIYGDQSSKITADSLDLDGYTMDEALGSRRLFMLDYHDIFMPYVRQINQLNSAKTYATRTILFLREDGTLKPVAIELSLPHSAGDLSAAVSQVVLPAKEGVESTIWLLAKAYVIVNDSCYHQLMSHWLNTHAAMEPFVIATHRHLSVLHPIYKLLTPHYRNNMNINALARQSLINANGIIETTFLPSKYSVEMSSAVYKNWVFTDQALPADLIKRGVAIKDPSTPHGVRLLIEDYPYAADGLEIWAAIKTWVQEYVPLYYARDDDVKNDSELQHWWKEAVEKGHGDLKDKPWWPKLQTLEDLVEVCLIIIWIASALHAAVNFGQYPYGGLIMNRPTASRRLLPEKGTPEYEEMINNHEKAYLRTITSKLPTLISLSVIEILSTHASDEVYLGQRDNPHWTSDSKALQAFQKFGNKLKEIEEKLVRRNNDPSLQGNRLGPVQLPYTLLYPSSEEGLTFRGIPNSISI
Experimental: Soybean lipoxygenase SLOX-1 at pH 9 is used in vitro. During this assay linoleic acid sodium salt is converted to the corresponding 13-hydroperoxide. The reaction is recorded photometrically at 234 nm using the UV-based enzyme assay. […] It is known that soybean LOX inhibitory activity induced by NSAIDs is qualitatively quite similar to the inhibition observed on the rat mast cells LOX and this assay may be used as a qualitative or semi-quantitative screen for such activity.
To a quartz cell, add 790 μL of Tris-HCl pH = 9.0 buffer, 200 μL of plant-derived lipoxygenase solution (1:9 × 10^−4 w/v, in saline), 10 μL of the test compound solution and 100 μL of sodium linoleate solution (3 mM concentration). The absorbance was measured at 234 nm, where the change in absorbance due to the conversion of linoleic acid to […] was recorded. A solution of 790 μL of Tris-HCl pH = 9.0 buffer, 200 μL of a plant-derived lipoxygenase solution (1:9 × 10^−4 w/v, in saline), 10 μL of DMSO and 100 μL of sodium linoleate solution (3 mM concentration) was used as a control.

[4] = Experimental lipophilicity RM by reverse phase thin layer chromatography (RP-TLC); assay type: physicochemical; details: methanol-water mobile phase
Experimental: Lipophilicity is a main physicochemical parameter for bioactive molecules, linking solubility, ligand-target binding interactions, membrane permeability absorption, distribution, bioavailability, metabolism, elimination and toxicological effects (ADMET), playing an important role in biological activity. The experimental values of lipophilicity RM were determined by reverse phase thin layer chromatography. For the experimental determination of lipophilicity the hydrophilic-lipid phase system is a mixture of methanol- water (90/10%). The theoretical lipophilicity values are determined by the Bioloom program (http://biobyte.com/bb/prod/bioloom.html, accessed on 8 April 2024) (Table 1). According to the calculated clog P values, the most lipophilic compounds are 3c, 3d and 3f while the less lipophilic ones are compounds 5a and 5b.
Melting points were determined on a MEL-Temp II (Lab. Devices, Holliston, MA, USA). In vitro tests were carried out using a UV-Vis spectra and recorded on a Perkin-Elmer 554 double-beam spectrophotometer (Perkin-Elmer Corporation Ltd., Lane Beaconsfield, Bucks, UK). Infrared spectra (KBr pellets) were recorded with Perkin-Elmer 597 spectrophotometer (Perkin-Elmer Corporation Ltd., Lane Beaconsfield, Bucks, UK). The ^1H […] Magnetic Resonance (^1H-NMR) spectra were acquired on an Agilent 500/54 (DD2) at 500 MHz in CDCl3 using tetramethylsilane as an internal standard. Agilent 500/54 (DD2) ^13C NMR spectra were acquired at 125 MHz in CDCl3 solutions with tetramethylsilane serving as an internal reference. Coupling constants J are expressed in Hz, and chemical shifts are reported in ppm. Thermo Fisher Scientific Inc., Waltham, MA, USA, used MeOH as the solvent to calculate mass spectra using an LC-PDA-MS Thermo Finnigan system (LC Pump Plus, Autosampler, Surveyor PDA Plus Detector) interfaced with an ESI MSQ Plus (Thermo Finnigan). Thin-layer chromatography using 5554 F254 Silica gel/TLC cards (Merck and Fluka Chemie GmbH Buchs, Steinheim, Switzerland) was used to monitor the reaction progress. Silica gel 60 F254 plates with a diameter of 2 mm were utilized for preparative thin layer chromatography (prep TLC) by Merck KgaA (ICH078057). Merck (20 × 20 cm) plates were used for the experimental assessment of the lipophilicity using reverse phase thin-layer chromatography (RP-TLC) TLC-Silica gel 60 F254 DC Kieselgel.
In this experiment, TLC silica gel 60 F254 1.05715.0001 commercial glass plates from Merck were used. The plates were first immersed in a 5% v/v solution of liquid paraffin in petroleum ether and left for 90 s to become completely impregnated with the stable lipophilic phase. They were then activated by standing for 30 min in an oven at 40 °C and kept there until the time of use. A 70% v/v MeOH/H2O mixture was used as the mobile phase. The mobile phase was saturated with a few drops of liquid paraffin before being used. The spots of the compounds were placed on the plate at a distance of 2 cm from the edges of the plate and also from each other. The development of the spots on the plates was carried out in closed chromatography chambers where the atmosphere is saturated with the mobile phase at room temperature. At the end of development, the solvent-formed front was marked and the plates are dried at 80 °C for about 20–30 min. The appearance of the spots was made under an ultraviolet light lamp. The Rf values were the average of 5–6 measurements for each compound and assuming that the compounds will have been rotated to different positions on the plates. The RM values were calculated from the corresponding Rf values according to the equation [67].RM = log [(1/Rf) − 1](1)

SMILES	AAPH% Inhibition, 100 μM (±SD) [1]	RA%, 100 μM, 60 min (±SD) [2]	inhibition at 100 µM [3]	RM ± SD [4]	RA%, 100 μM, 20 min (±SD) [2]	IC50 [3]
CC(=O)N1N=C(/C=C/c2ccc(Cl)cc2)CC1c1ccc(Cl)cc1 (centres unmarked) [Compound 6d, (E)-5-(4-chlorophenyl)-3-(4-chlorostyryl)-4,5-dihydro-1-H-pyrazol-1-ethan-1-one]	67 ± 0.4%	8 ± 0.7%	42 ± 2.7%	0.65 ± 0.048		
N#Cc1ccc(N2N=C(/C=C/c3ccc(Cl)cc3)CC2c2ccc(Cl)cc2)cc1 (centres unmarked) [Compound 4d, (E)-4-(5-(4-chlorophenyl)-3-(4-chlorostyryl)-4,5-dihydro-1H-pyrazol-1-yl)-benzonitrile]	51 ± 0.2%	2 ± 0.1%		0.85 ± 0.068	23 ± 0.3%	85 µM
CC(=O)N1N=C(/C=C/c2ccccc2)CC1c1ccccc1 (centres unmarked) [Compound 6a, (E)-5-phenyl-3-styryl-4,5-dihydro-1-H-pyrazol-1-ethan-1-one]	22 ± 1%		24 ± 0.8%	0.17 ± 0.014	11 ± 0.6%	
O=C(/C=C/c1ccc(C(F)(F)F)cc1)/C=C/c1ccc(C(F)(F)F)cc1 [Compound 1f, (1E,4E)-1,5-bis(4-(trifluoromethyl)phenyl)-1,4-pentadien-3-one]	32 ± 1.4%	26 ± 0.9%	24 ± 1.4%	0.57 ± 0.031	13 ± 0.8%	
Clc1ccc(/C=C/C2=NN(c3ccccc3)C(c3ccc(Cl)cc3)C2)cc1 (centres unmarked) [Compound 2d]	75 ± 0.1%			1.07 ± 0.067	6 ± 0.4%	2.5 µM
O=C(/C=C/c1ccccc1)/C=C/c1ccccc1 [Compound 1a, (1E,4E)-1,5-diphenyl-1,4-pentadien-3-one]	69 ± 0.3%	10 ± 0.5%		0.10 ± 0.003	5 ± 0.5%	10 µM
Fc1ccc(/C=C/C2=NN(c3ccc(Br)cc3)C(c3ccc(F)cc3)C2)cc1 (centres unmarked) [Compound 3b]	63 ± 2.6%	6 ± 0.6%	17 ± 0.8%	1.03 ± 0.057	2 ± 0.1%	
O=C(/C=C/c1ccc(Br)cc1)/C=C/c1ccc(Br)cc1 [Compound 1c, (1E,4E)-1,5-bis(4-bromophenyl)-1,4-pentadien-3-oneone]	61 ± 0.5%	44 ± 1.6%	28 ± 0.6%	0.65 ± 0.034		
Brc1ccc(/C=C/C2=NN(c3ccc(Br)cc3)C(c3ccc(Br)cc3)C2)cc1 (centres unmarked) [Compound 3c]	40 ± 1.8%	24 ± 0.9%		1.46 ± 0.049	2 ± 0.1%	30 µM
NC(=O)N1N=C(/C=C/c2ccc(Cl)cc2)CC1c1ccc(Cl)cc1 (centres unmarked) [Compound 5d, (E)-5-(4-chlorophenyl)-3-(4-chlorostyryl)-4,5-dihydro-1H-pyrazole-1-carboxamide]	33 ± 0.5%	34 ± 0.5%		0.50 ± 0.043		80 µM
Fc1ccc(/C=C/C2=NN(c3ccccc3)C(c3ccc(F)cc3)C2)cc1 (centres unmarked) [Compound 2b]	39 ± 0.3%	15 ± 0.6%	24 ± 1.9%	0.78 ± 0.065	2 ± 0.1%	
